Measurements published in patent publication US20110028566A1, “COMPOSITIONS AND PRODUCTS CONTAINING CYCLOALIPHATIC DIOL ANTIMICROBIAL AGENTS AND METHODS OF USING THE COMPOSITIONS AND PRODUCTS” (EASTMAN CHEMICAL COMPANY, priority 2009, published 2011).
“And” between values parts separate entries of the source, which are not always exact repeats. Identical values can stand only once. One block for each compound: values may come before it.

Assays:
Assay type in all cases: cell-based
[1] = system: Pseudomonas aeruginosa ATCC 27853; assay: MIC determination and synergy testing (Kull synergy index), microplate; conditions: for QB, MIC of CG alone: P. aeruginosa, plate 169E
Description: (§1) The test cultures are listed in Table 7 along with the incubation temperatures used for growth and minimum inhibitory concentration (MIC) testing. […] C. albicans was cultured in Sabouraud dextrose broth (SDB) for approximately 44-52 hours for preparation of inoculum. A. niger was cultured on Sabouraud dextrose agar (SDA) for 3-4 days until there was confluent growth and visible spore formation. Spores were harvested from the SDA plates by flooding the surface of the plate with 5-10 mL of phosphate-buffered saline (PBS) and gently spreading the liquid across the surface of the plate with a sterile T-shaped plastic spreader (Copan Diagnostics) until there was a well-mixed suspension of spores. The resulting spore suspension was collected using a serological pipette and stored at 2-8° C. until use.
(§2) Inoculum concentration was determined by dilution plating of the cultures or spore suspension. A serial dilution in PBS was made to 10^−8 for the bacterial cultures or 10^−5 for the fungal cultures. Fifty or 100 μL of the final dilution was spread on two Trypticase-soy agar (TSA) plates for bacteria or two SDA plates for fungi. After 24 to 48 hours plates were counted and the concentrations used in each experiment were calculated.
(§3) The antimicrobial agents tested for synergy along with the respective diluents and working stock solution concentrations are shown below. For determination of MIC ranges, individual antimicrobial agent stock solutions were added to sterile medium to yield the highest level test concentrations, and then serially diluted in the medium to prepare the range of test concentrations. For synergy testing individual test concentrations were prepared in sterile medium, and then blended to form the desired combinations.
(§4) MICs were determined using a high-throughput microplate method. Individual antimicrobial agents were added to TSB (pH 7.3) for bacterial testing or SDB (pH 5.6) for fungal testing at the highest concentration to be tested. A serial dilution series was prepared at a dilution ratio of 1:1.3333 such that a one log range was covered in nine dilutions. Two-hundred microliters of the diluted antimicrobial agents were dispensed into four wells each of a sterile, 96-well, flat-bottom microplate (Nalge Nunc International). Four additional wells of the highest concentration were dispensed to serve as uninoculated high-level controls. Eight additional wells containing only broth medium were also prepared, four to serve as negative controls and four as positive controls. Three wells of each antimicrobial agent dilution were inoculated with one of the test strains in Table 7. The final well of each antimicrobial agent dilution was left uninoculated to serve as a control (and means of compensating) for any absorbance/turbidity due to the test compounds.
(§5) Microplates were inoculated using the cultures or spore suspensions prepared as described above. The S. aureus cultures were used undiluted, while the E. coli and P. aeruginosa cultures were used either undiluted or after a 1:2 dilution in sterile TSB. The C. albicans cultures were used either undiluted or following a 2-fold concentration by centrifugation. One of two means of inoculation was used to deliver a final concentration of approximately 10^5 colony-forming units (CFU)/mL of C. albicans, 10^5 spores/mL of A. niger, or 10^6 CFU/mL of bacteria. The primary method used a stainless steel pin replicator (Nalge Nunc International) mounted on a hand-operated bench-top press (Schmidt Technology Corporation) fitted with a custom-built microplate holder to dispense one microliter of each inoculum from a “master” plate containing 50-100 μL of culture into the wells of the test plate. The pin replicator was sterilized before and between inoculations by immersing in ethanol and flaming. The alternative method of inoculation was by directly pipetting 20 μL of a 1:20 dilution of each culture or spore suspension into the appropriate wells of the test plates.

[2] = system: Staphylococcus aureus ATCC 25923; assay: as above; conditions: for QB, MIC of CG alone: plate 125D
Description: as §1, §2, §3, §4, §5

[3] = system: Aspergillus niger ATCC 16404; assay: as above; conditions: for QB, MIC of CG alone / QB, MIC of PE alone: A. niger; for QB, MIC of PE alone: plates 122C, 242C
Description: as §1, §2
The A. niger spore suspensions were concentrated to a level of 1-2×10^8 spores/mL by centrifugation and resuspension in a portion of the resulting supernatant.
as §3, §4
Microplates were inoculated using the cultures or spore suspensions prepared as described above. The S. aureus cultures were used undiluted, while the E. coli and P. aeruginosa cultures were used either undiluted or after a 1:2 dilution in sterile TSB. The C. albicans cultures were used either undiluted or following a 2-fold concentration by centrifugation. One of two means of inoculation was used to deliver a final concentration of approximately 10^5 colony-forming units (CFU)/mL of C. albicans, 10^5 spores/mL of A. niger, or 10^6 CFU/mL of bacteria. The primary method used a stainless steel pin replicator (Nalge Nunc International) mounted on a hand-operated bench-top press (Schmidt Technology Corporation) fitted with a custom-built microplate holder to dispense one microliter of each inoculum from a “master” plate containing 50-100 μL of culture into the wells of the test plate. The pin replicator was sterilized before and between inoculations by immersing in ethanol and flaming. […]

[4] = system: Candida albicans ATCC 10231; assay: as above; conditions: for QB, MIC of MP alone: plate 128B; for QB, MIC of PE alone: plates 116B, 240B, 252B
Description: as §1, §2, §3, §4, §5

[5] = system: Corynebacterium xerosis ATCC #373; assay: Synergy testing in brain heart infusion media, 96-well plates; conditions: for % EHG / SI: CHDM with EHG; for % EHG: relative to EHG alone; for QB/b (EHG): inhibitory concentration of EHG alone or in combination with CHDM, plate EX194-195-EHG-Syn1; for SI: synergy index
Description: as §4
The individual antimicrobial agents listed in Table 8 were tested in combination with CHDM. The MIC values determined in the individual antimicrobial agent testing described above were used to establish a target MIC. In each experiment, MIC values for the individual antimicrobial agents and CHDM were determined in order to eliminate any variability due to comparison of data from different dates. Testing was done over a range of four concentrations separated by a factor of 1.3333 as described above. The four concentrations were the target MIC plus one dilution level higher and two dilution levels lower than the target. Combinations of antimicrobial agents and CHDM were made at 50% of the target MIC values and the higher and lower individual levels. Additionally, 50% level series were also tested with the antimicrobial agent or CHDM at one dilution level lower than the target level. The method of Kull et. al. (F. C. Kull et al., Applied Microbiology, 9, p 538-541 (1961)) was used to determine whether there was synergistic activity between CHDM and each antimicrobial agent for inhibition of each of the five microbes. MICs for the individually-tested CHDM and antimicrobial agent, as well as the concentration of CHDM and antimicrobial agent in the combination MIC were used to calculate a synergy index (SI) according to the equation: […]
where Qa and Qb are the minimum inhibitory concentrations for CHDM and a antimicrobial agent, respectively, when tested independently, and QA and QB are the concentrations of CHDM and a antimicrobial agent, respectively, in combination at an inhibitory concentration. Accordingly, synergy is defined as a SI less than one.
Experiments were also conducted using Corynebacterium xerosis, which is a bacterium known to cause body odor. […] The Corynebacterium xerosis bacterium used in this example was ATCC #373. The seed culture was grown in brain heart infusion medium. Assays were performed in brain heart infusion media in 96-well plates as described in Example 2. The brain heart infusion medium was at a pH of about 7.4. All growth was conducted at 37° C.

[6] = system: Escherichia coli ATCC 25922; assay: MIC determination and synergy testing (Kull synergy index), microplate; conditions: E. coli; for QB, MIC of MP alone: plate 108A; for QB, MIC of PE alone: plates 105A, 213A, 223A
Description: as §1, §2, §3, §4, §5

[7] = C. albicans, day 2 of incubation
[8] = C. albicans, day 3 of incubation

SMILES: CCCCCCC(O)CO (centres unmarked) [Caprylyl glycol (CG)]
QB, MIC of CG alone ([1]; day 1 of incubation): 0.23 weight percent | QB, MIC of CG alone ([1]; day 2 of incubation): 0.30 weight percent | QB, MIC of CG alone ([1]; day 3 of incubation): 0.30 weight percent | QB, MIC of CG alone ([2]; S. aureus, day 1 of incubation): 0.24 weight percent | QB, MIC of CG alone ([2]; S. aureus, day 2 of incubation): 0.32 weight percent | QB, MIC of CG alone ([3]; day 2 of incubation, plates 123C, 217C): 0.17 weight percent and 0.10 weight percent | QB, MIC of CG alone ([3]; day 3 of incubation, plate 123C): 0.13 weight percent | QB, MIC of CG alone ([4]; C. albicans, day 3 of incubation, plates 117B, 254B): 0.11 weight percent and 0.22 weight percent

SMILES: CC1(C)C(=O)N(CO)C(=O)N1CO [DMDMH, DMDM Hydantoin, reference compound]
QB/b ([1]; DMDM hydantoin alone (QB) or in combination with CHDM (b), plate 150E, day 1): 0.049 | QB/b ([3]; DMDM hydantoin alone (QB) or in combination with CHDM (b), plate 196C, day 3): 0.14 | QB/b ([4]; DMDM hydantoin alone (QB) or in combination with CHDM (b), plate 241B, day 2): 0.22 | QB/b ([4]; DMDM hydantoin alone (QB) or in combination with CHDM (b), plate 241B, day 3): 0.22 | QB/b ([4]; DMDM hydantoin alone (QB) or in combination with CHDM (b), plate 244B, day 2): 0.36 | QB/b ([4]; DMDM hydantoin alone (QB) or in combination with CHDM (b), plate 244B, day 3): 0.36 | QB/b ([4]; DMDM hydantoin alone (QB) or in combination with CHDM (b), plate 263B, day 2): 0.45 | QB/b ([4]; DMDM hydantoin alone (QB) or in combination with CHDM (b), plate 263B, day 3): 0.80 | QB/b ([4]; DMDM hydantoin alone (QB) or in combination with CHDM (b), plate 264B, day 2): 0.34 | QB/b ([4]; DMDM hydantoin alone (QB) or in combination with CHDM (b), plate 264B, day 3): 0.60

SMILES: CCCCC(CC)COCC(O)CO (centres unmarked) [EHG, ethylhexyl glycerin, reference compound]
% EHG ([5]; Day 2): 100.0% | QB/b (EHG) ([5]; Day 2): 0.107 | SI ([5]; Day 2): 1.00 | % EHG ([5]; Day 3): 100.0% | QB/b (EHG) ([5]; Day 3): 0.080 | SI ([5]; Day 3): 1.00

SMILES: Cn1sccc1=O [MIT, Methylisothiazolinone, reference compound]
Synergism of antimicrobial agent in combination with 1,4-CHDM for P. aeruginosa (in words; in the 12th table the cell names the organism and table number) ([1]; Kull synergy index, synergistic when at least two results SI<1): P. aeruginosa (26) | QB/b ([1]; MIT: MIC alone (QB) or conc. in combination with CHDM (b), plate 147E, day 1): 0.00053 | QB/b ([1]; MIT: MIC alone (QB) or conc. in combination with CHDM (b), plate 147E, day 2): 0.00093 | QB/b ([1]; MIT: MIC alone (QB) or conc. in combination with CHDM (b), plate 210E, day 1): 0.0006 | QB/b ([1]; MIT: MIC alone (QB) or conc. in combination with CHDM (b), plate 210E, day 2): 0.001 | QB/b ([1]; MIT: MIC alone (QB) or conc. in combination with CHDM (b), plate 249E, day 1): 0.00048 | QB/b ([1]; MIT: MIC alone (QB) or conc. in combination with CHDM (b), plate 249E, day 2): 0.0009 | QB/b ([2]; MIT: MIC alone (QB) or conc. in combination with CHDM (b), plate 137D, day 2): 0.002 | QB/b ([3]; MIT: MIC alone (QB) or conc. in combination with CHDM (b), plate 193C, day 2): 0.04 | QB/b ([3]; MIT: MIC alone (QB) or conc. in combination with CHDM (b), plate 193C, day 3): 0.03 | QB/b ([3]; MIT: MIC alone (QB) or conc. in combination with CHDM (b), plate 214C, day 2): 0.04 | QB/b ([3]; MIT: MIC alone (QB) or conc. in combination with CHDM (b), plate 214C, day 3): 0.04 | QB/b ([4]; MIT: MIC alone (QB) or conc. in combination with CHDM (b), plate 162B, day 3): 0.012 | QB/b ([4]; MIT: MIC alone (QB) or conc. in combination with CHDM (b), plate 200B, day 2): 0.021 | QB/b ([4]; MIT: MIC alone (QB) or conc. in combination with CHDM (b), plate 200B, day 3): 0.021

QB, MIC of MP alone ([6]; day 1 of incubation): 0.112 weight percent | QB, MIC of MP alone ([6]; day 2 of incubation): 0.112 weight percent | QB, MIC of MP alone [4, 7]: 0.060 weight percent | QB, MIC of MP alone [4, 8]: 0.080 weight percent
SMILES: COC(=O)c1ccc(O)cc1 [Methylparaben (MP)]

SMILES: OCCOc1ccccc1 [Phenoxyethanol (PE)]
QB, MIC of PE alone ([2]; S. aureus, day 2 of incubation, plates 124D, 219D): 0.73 weight percent and 0.55 weight percent | QB, MIC of PE alone ([6]; day 1 of incubation): 0.36 weight percent and 0.33 weight percent and 0.48 weight percent | QB, MIC of PE alone ([6]; day 2 of incubation): 0.48 weight percent and 0.36 weight percent and 0.43 weight percent | QB, MIC of PE alone ([3]; day 2 of incubation): 0.24 weight percent and 0.30 weight percent | QB, MIC of PE alone ([3]; day 3 of incubation): 0.24 weight percent and 0.40 weight percent | QB, MIC of PE alone [4, 7]: 0.22 weight percent and 0.27 weight percent and 0.23 weight percent | QB, MIC of PE alone [4, 8]: 0.22 weight percent and 0.27 weight percent and 0.30 weight percent
